We go through one substance from patent US20260217768A1, “NANOPARTICLE-NHE3 PEPTIDE TO TREAT DIARRHEA” (The Johns Hopkins University, priority 2023, published 2026).

In one assay the test system is NHE3. Kind of assay: NHE3 activity in differentiated human enteroid monolayers after nanoparticle delivery of peptide. The assay is classed as cell-based. How it is done: NHE3 activity in PS120, Caco-2/BBe cells and human jejunal enteroids was determined fluorometrically (Photon Technologies Incorporated) using the intracellular pH sensitive dye BCECF, as reported (Levine et al., 1993; Sarker et al., 2008; Foulke-Abel et al., 2020). PS120/HA3-NHE3 cells were seeded on glass cover slips and studied at 70-80% confluency. Caco-2/BBe/HA3-NHE3 cells were grown to confluency on Transwell inserts (polyester, 0.4-μm pore size) and studied approximately 14-16 days pod. Human duodenal enteroid monolayers on Transwell inserts were differentiated for 5 days in the absence of Wnt3a, R-spondin, and noggin as described (Noel et al., 2017; Staab et al., 2020).
Rates of Na^+/H^+ exchange were determined as Na^+-dependent alkalinization in the presence of 50-μM HOE-694 (to inhibit all other plasma membrane NHE isoforms) in HCO3-free solutions, with internal calibration using the nigericin/K+ method, as previously described (Sarker et al., 2008; Foulke-Abel et al., 2020). Kinetic analysis was used for PS120 cell studies (expressed as Vmax) and initial rates (ΔpH/min) for Caco-2/BBe cells, mouse intestine in vitro, and human enteroids. For in vitro mouse jejunal transport studies, NHE3 activity (in the presence of 50-μM HOE-694) was measured using SNARF-4F at 37° C. in a perfusion chamber using a two-photon microscope (Olympus FV1000) and 25× objective, as described (Murtazina et al., 2011).
PBAE polymer and peptide were separately dissolved in pH 7.4 150-mM PBS and combined at a 1:1 volume ratio. Final concentrations of the components were 6-ng/μL peptide and 180-ng/μL polymer (30:1 polymer: peptide weight ratio). Polymer and peptide nanoparticles were allowed to self-assemble at room temperature for 10 minutes. For characterization, nanoparticles were diluted 1:5 in PBS. Hydrodynamic diameter and zeta potential were measured using a Malvern Zetasizer Pro (Malvern Panalytical, Malvern, UK). Stability was assessed by incubating nanoparticles at RT up to 45 minutes then measuring hydrodynamic diameter over 45 minutes. […]

For assay [1], the system named is mouse ileal loops. The assay can be described thus: Basal fluid absorption in closed mouse ileal loops, nanoparticle-conjugated peptides, with or without Tenapanor. The format is in vivo. As to conditions: for residual fluid / fluid absorption in closed ileal loops compared to CP2: nanoparticle conjugated peptide 400 nM for 4 h, then 150-μL PBS for 30 min. Here is the method: (§1) All in vivo studies were performed on 8-12 week old C57B1/6N mice anesthetized with isofluorane and kept at 37° C. via heating lamps and rectal thermal probes.
(§2) Effect on basal fluid transport and effect of Tenapanor. Mice operated on as above had 3-4 cm closed ileal loops inoculated with 150-μL PBS containing 400-nM nanoparticle-CP-2 or -N3SP-1Δ7. After 4 h, the loops were drained and inoculated with 150-μL PBS. 30 min later, the animals were sacrificed and loop weight/length determined. In parallel studies, Tenapanor (10 μM) was present in both incubation periods. Similar to the BODIPY-conjugated peptide studies, the effects of nanoparticle-CP-2 or N3SP-1Δ7 (4 μM) compared to PBS alone were determined on net fluid secretion produced by inoculation of 0.1-μg CTx. The nanoparticle-peptides plus 0.1-μg CTx in 150-μL PBS were inoculated in 3-4 cm long closed ileal loops. Additional controls included loops exposed only to 150-μL PBS and those only exposed to the CTx/PBS. 4 h later, the animals were sacrificed and loop weight/cm length was determined.

Assay [2] has as its system mouse ileal loops. The assay can be described thus: CTx-induced fluid secretion in closed mouse ileal loops, nanoparticle-conjugated peptides. The assay is classed as in vivo. Here is the method: as §1, §2

As for “N3SP-1 lacking first seven N-terminal amino acids: RPSTVEASVSYLLRESASAVCLDMQSLEQRR [Peptide N3SP-1Δ7]”, the “NHE3 activity after FSK, % of same peptide without FSK” value with NHE3 (nanoparticles (250 nM) 18 h, FSK exposure, n=4) is 88.0%. Further, the “increase of basal NHE3 activity compared to CP-2” value with NHE3 (nanoparticles added apically (250 nM) for 18 h, n=4, p=0.043) is listed as 36.0%. The “residual fluid / fluid absorption in closed ileal loops compared to CP2” value is on record as “increased fluid absorption” with mouse ileal loops [1] and “significantly less amount of residual fluid” in the assay on mouse ileal loops [1] (listed as N3SP-147). The “residual fluid in presence of Tenapanor, CP2 vs N3SP-1Δ7” value in the assay on mouse ileal loops [1] (nanoparticle conjugated peptide 400 nM, Tenapanor (10 μM) in both incubation periods) is reported as “no difference in residual fluid”. Besides, the “reduction of cholera toxin induced secretion” value with mouse ileal loops [2] (mouse, in vivo) is “approximately 42%”. Further, in the assay with mouse ileal loops [2] (nanoparticle-peptide 4 μM with 0.1-μg CTx, 4 hours), the “effect on CTx-induced fluid in ileal loops (loop weight/length)” value is on record as “significantly less fluid”.
